Measured values taken from patent publication EP0284935A1, “5-Substituted quinolone- and naphthyridone carboxylic acid derivatives” (BAYER AG, priority 1987, dated 1988).
In brackets after ≈: the same amount, converted by molar mass. Structures can show the parent of a compound that is named as a salt.

What was measured:
Test in all cases: Agar dilution test, minimum inhibitory concentration
Assay type in all cases: cell-based
Staph. FK 422 = conditions: test strain Staph. FK 422; Isosensitest-Agar (Oxoid), inoculum ca. 10^4 germs per inoculation point; read-out: Minimale Hemmkonzentrationen
E.coli 455/7 = conditions: Escherichia coli; test strain E.coli 455/7; Isosensitest-Agar (Oxoid), inoculum ca. 10^4 germs per inoculation point; read-out: Minimale Hemmkonzentrationen
Serratia 16040 = conditions: test strain Serratia 16040; Isosensitest-Agar (Oxoid), inoculum ca. 10^4 germs per inoculation point; read-out: Minimale Hemmkonzentrationen
Proteus mir. 8223 = conditions: test strain Proteus mir. 8223; Isosensitest-Agar (Oxoid), inoculum ca. 10^4 germs per inoculation point; read-out: Minimale Hemmkonzentrationen
Staph. 133 = conditions: test strain Staph. 133; Isosensitest-Agar (Oxoid), inoculum ca. 10^4 germs per inoculation point; read-out: Minimale Hemmkonzentrationen
Proteus mir. 8175 = conditions: test strain Proteus mir. 8175; Isosensitest-Agar (Oxoid), inoculum ca. 10^4 germs per inoculation point; read-out: Minimale Hemmkonzentrationen
Staph. 1756 = conditions: test strain Staph. 1756; Isosensitest-Agar (Oxoid), inoculum ca. 10^4 germs per inoculation point; read-out: Minimale Hemmkonzentrationen
Pseudomonas Walter = conditions: test strain Pseudomonas Walter; Isosensitest-Agar (Oxoid), inoculum ca. 10^4 germs per inoculation point; read-out: Minimale Hemmkonzentrationen
Providencia 12052 = conditions: test strain Providencia 12052; Isosensitest-Agar (Oxoid), inoculum ca. 10^4 germs per inoculation point; read-out: Minimale Hemmkonzentrationen
Klebsiella 63 = conditions: test strain Klebsiella 63; Isosensitest-Agar (Oxoid), inoculum ca. 10^4 germs per inoculation point; read-out: Minimale Hemmkonzentrationen
Morg. morg. 932 = conditions: test strain Morg. morg. 932; Isosensitest-Agar (Oxoid), inoculum ca. 10^4 germs per inoculation point; read-out: Minimale Hemmkonzentrationen
E.coli A261 = conditions: Escherichia coli; test strain E.coli A261; Isosensitest-Agar (Oxoid), inoculum ca. 10^4 germs per inoculation point; read-out: Minimale Hemmkonzentrationen
Klebsiella 8085 = conditions: test strain Klebsiella 8085; Isosensitest-Agar (Oxoid), inoculum ca. 10^4 germs per inoculation point; read-out: Minimale Hemmkonzentrationen
Pseudomonas Ellsworth = conditions: test strain Pseudomonas Ellsworth; Isosensitest-Agar (Oxoid), inoculum ca. 10^4 germs per inoculation point; read-out: Minimale Hemmkonzentrationen
Morg. morg. 11006 = conditions: test strain Morg. morg. 11006; Isosensitest-Agar (Oxoid), inoculum ca. 10^4 germs per inoculation point; read-out: Minimale Hemmkonzentrationen
Providencia 12012 = conditions: test strain Providencia 12012; Isosensitest-Agar (Oxoid), inoculum ca. 10^4 germs per inoculation point; read-out: Minimale Hemmkonzentrationen
Enteroc. 9790 = conditions: test strain Enteroc. 9790; Isosensitest-Agar (Oxoid), inoculum ca. 10^4 germs per inoculation point; read-out: Minimale Hemmkonzentrationen
Enteroc. 27101 = conditions: test strain Enteroc. 27101; Isosensitest-Agar (Oxoid), inoculum ca. 10^4 germs per inoculation point; read-out: Minimale Hemmkonzentrationen
Proteus vulg. 1017 = conditions: test strain Proteus vulg. 1017; Isosensitest-Agar (Oxoid), inoculum ca. 10^4 germs per inoculation point; read-out: Minimale Hemmkonzentrationen
E.coli Neumann = conditions: Escherichia coli; test strain E.coli Neumann; Isosensitest-Agar (Oxoid), inoculum ca. 10^4 germs per inoculation point; read-out: Minimale Hemmkonzentrationen

Row | Compound | MIC (Staph. FK 422) [µg/mL] | MIC (E.coli 455/7) [µg/mL] | MIC (Serratia 16040) [µg/mL] | MIC (Proteus mir. 8223) [µg/mL] | MIC (Staph. 133) [µg/mL] | MIC (Proteus mir. 8175) [µg/mL] | MIC (Staph. 1756) [µg/mL] | MIC (Pseudomonas Walter) [µg/mL] | MIC (Providencia 12052) [µg/mL] | MIC (Klebsiella 63) [µg/mL] | MIC (Morg. morg. 932) [µg/mL] | MIC (E.coli A261) [µg/mL] | MIC (Klebsiella 8085) [µg/mL] | MIC (Pseudomonas Ellsworth) [µg/mL] | MIC (Morg. morg. 11006) [µg/mL] | MIC (Providencia 12012) [µg/mL] | MIC (Enteroc. 9790) [µg/mL] | MIC (Enteroc. 27101) [µg/mL] | MIC (Proteus vulg. 1017) [µg/mL] | MIC (E.coli Neumann) [µg/mL]
1 | CC1CN(c2c(F)c(N)c3c(=O)c(C(=O)O)cn(C4CC4)c3c2F)CCN1 (stereo not shown) [Beispiel 17, 5-Amino-1-cyclopropyl-6,8-difluor-1,4-dihydro-7-(3-methyl-1-piperazinyl)-4-oxo-3-chinolincarbonsäure] | 0.03 (≈ 0.0793 µM) | 0.5 (≈ 1.32 µM) | 2 (≈ 5.29 µM) | 0.25 (≈ 0.661 µM) | 0.03 (≈ 0.0793 µM) | 0.06 (≈ 0.159 µM) | 0.03 (≈ 0.0793 µM) | 0.25 (≈ 0.661 µM) | 2 (≈ 5.29 µM) | – | – | – | – | – | – | – | – | – | – | –
2 | CCN1CCN(c2c(F)c(N)c3c(=O)c(C(=O)O)cn(C4CC4)c3c2F)CC1 [Beispiel 20, 5-Amino-1-cyclopropyl-7-(4-ethyl-1-piperazinyl)-6,8-difluor-1.4-dihydro-4-oxo-3-chinolincarbonsäure] | 0.06 (≈ 0.153 µM) | 2 (≈ 5.1 µM) | 4 (≈ 10.2 µM) | 0.25 (≈ 0.637 µM) | 0.06 (≈ 0.153 µM) | – | 0.06 (≈ 0.153 µM) | 1 (≈ 2.55 µM) | 1 (≈ 2.55 µM) | 0.03 (≈ 0.0765 µM) | 0.03 (≈ 0.0765 µM) | 0.25 (≈ 0.637 µM) | 0.06 (≈ 0.153 µM) | 0.03 (≈ 0.0765 µM) | 0.06 (≈ 0.153 µM) | 0.06 (≈ 0.153 µM) | 0.25 (≈ 0.637 µM) | 0.25 (≈ 0.637 µM) | – | –
3 | Nc1c(F)c(N2CCN(CCO)CC2)c(F)c2c1c(=O)c(C(=O)O)cn2C1CC1 [Beispiel 21] | 0.06 (≈ 0.147 µM) | 2 (≈ 4.9 µM) | 4 (≈ 9.79 µM) | 0.5 (≈ 1.22 µM) | 0.06 (≈ 0.147 µM) | – | 0.06 (≈ 0.147 µM) | 1 (≈ 2.45 µM) | 2 (≈ 4.9 µM) | 0.06 (≈ 0.147 µM) | 0.03 (≈ 0.0735 µM) | 0.5 (≈ 1.22 µM) | 0.06 (≈ 0.147 µM) | – | – | 0.06 (≈ 0.147 µM) | 0.25 (≈ 0.612 µM) | 0.25 (≈ 0.612 µM) | – | –
4 | C[C@@H]1CN(c2c(F)c(N)c3c(=O)c(C(=O)O)cn(C4CC4)c3c2F)C[C@H](C)N1 [Beispiel 22, 5-Amino-1-cyclopropyl-6,8-difluor-1,4-dihydro-7-(cis-3,5-dimethyl-1-piperazinyl)-4-oxo-3-chinolincarbonsäure] | 0.03 (≈ 0.0765 µM) | 0.5 (≈ 1.27 µM) | 2 (≈ 5.1 µM) | 0.5 (≈ 1.27 µM) | 0.03 (≈ 0.0765 µM) | 0.06 (≈ 0.153 µM) | 0.03 (≈ 0.0765 µM) | 0.5 (≈ 1.27 µM) | 1 (≈ 2.55 µM) | 0.03 (≈ 0.0765 µM) | 0.03 (≈ 0.0765 µM) | – | 0.06 (≈ 0.153 µM) | 0.03 (≈ 0.0765 µM) | 0.03 (≈ 0.0765 µM) | 0.03 (≈ 0.0765 µM) | 0.25 (≈ 0.637 µM) | – | – | –
5 | Nc1c(F)c(N2CCNC(c3ccccc3)C2)c(F)c2c1c(=O)c(C(=O)O)cn2C1CC1 (stereo not shown) [Beispiel 23, 5-Amino-1-cyclopropyl-6,8-difluor-1,4-dihydro-4-oxo-7-(3-phenyl-1-piperazinyl)-3-chinolincarbonsäure] | – | 1 (≈ 2.27 µM) | 2 (≈ 4.54 µM) | – | – | 0.06 (≈ 0.136 µM) | – | 1 (≈ 2.27 µM) | 1 (≈ 2.27 µM) | – | – | 0.25 (≈ 0.568 µM) | 0.03 (≈ 0.0681 µM) | – | 0.03 (≈ 0.0681 µM) | – | 0.06 (≈ 0.136 µM) | 0.03 (≈ 0.0681 µM) | – | –
6 | Nc1c(F)c(N2CCNC(c3ccc(F)cc3)C2)c(F)c2c1c(=O)c(C(=O)O)cn2C1CC1 (stereo not shown) [Beispiel 24, 5-Amino-1-cyclopropyl-6,8-difluor-7-[3-(4-fluorphenyl)-1-piperazinyl]-1,4-dihydro-4-oxo-3-chinolincarbonsäure] | – | 4 (≈ 8.73 µM) | 8 (≈ 17.5 µM) | 2 (≈ 4.36 µM) | 0.06 (≈ 0.131 µM) | 0.25 (≈ 0.545 µM) | 0.06 (≈ 0.131 µM) | 2 (≈ 4.36 µM) | 4 (≈ 8.73 µM) | – | – | 1 (≈ 2.18 µM) | – | 0.25 (≈ 0.545 µM) | 0.25 (≈ 0.545 µM) | – | 0.25 (≈ 0.545 µM) | 0.25 (≈ 0.545 µM) | 0.06 (≈ 0.131 µM) | –
7 | Nc1c(F)c(N2CCN3CCC2C3)c(F)c2c1c(=O)c(C(=O)O)cn2C1CC1 (stereo not shown) [Beispiel 25, 5-Amino-1-cyclopropyl-7-(1,4-diazabicyclo[3.2.1]oct-4-yl)-6,8-difluor-1,4-dihydro-4-oxo-3-chinolincarbonsäure] | – | 1 (≈ 2.56 µM) | 4 (≈ 10.2 µM) | 1 (≈ 2.56 µM) | – | – | – | 0.5 (≈ 1.28 µM) | 4 (≈ 10.2 µM) | 0.03 (≈ 0.0768 µM) | – | – | 0.06 (≈ 0.154 µM) | 0.03 (≈ 0.0768 µM) | 0.03 (≈ 0.0768 µM) | 0.06 (≈ 0.154 µM) | – | – | – | –
8 | Nc1c(F)c(N2CCOCC2)c(F)c2c1c(=O)c(C(=O)O)cn2C1CC1 [Beispiel 26, 5-Amino-1-cyclopropyl-6,8-difluor-1,4-dihydro-7-morpholino-4-oxo-3-chinolincarbonsäure] | 0.03 (≈ 0.0821 µM) | 16 (≈ 43.8 µM) | 8 (≈ 21.9 µM) | 0.5 (≈ 1.37 µM) | 0.03 (≈ 0.0821 µM) | – | 0.03 (≈ 0.0821 µM) | 2 (≈ 5.47 µM) | 8 (≈ 21.9 µM) | 0.06 (≈ 0.164 µM) | 0.03 (≈ 0.0821 µM) | 4 (≈ 10.9 µM) | 0.06 (≈ 0.164 µM) | 0.03 (≈ 0.0821 µM) | – | 0.06 (≈ 0.164 µM) | 0.25 (≈ 0.684 µM) | 0.25 (≈ 0.684 µM) | 0.03 (≈ 0.0821 µM) | 0.03 (≈ 0.0821 µM)
9 | Nc1c(F)c(N2CCCC2)c(F)c2c1c(=O)c(C(=O)O)cn2C1CC1 [Beispiel 27, 5-Amino-1-cyclopropyl-6,8-difluor-1,4-dihydro-4-oxo-7-(1-pyrrolidinyl)-3-chinolincarbonsäure] | – | 16 (≈ 45.8 µM) | 16 (≈ 45.8 µM) | 0.25 (≈ 0.716 µM) | – | 0.25 (≈ 0.716 µM) | – | 1 (≈ 2.86 µM) | 8 (≈ 22.9 µM) | – | 0.06 (≈ 0.172 µM) | 2 (≈ 5.73 µM) | – | – | – | 0.06 (≈ 0.172 µM) | – | 0.03 (≈ 0.0859 µM) | 0.06 (≈ 0.172 µM) | –
10 | Nc1c(F)c(N2CCC(O)C2)c(F)c2c1c(=O)c(C(=O)O)cn2C1CC1 (stereo not shown) [Beispiel 28, 5-Amino-1-cyclopropyl-6,8-difluor-1,4-dihydro-7-(3-hydroxy-1-pyrrolidinyl)-4-oxo-3-chinolincarbonsäure] | – | 2 (≈ 5.47 µM) | 1 (≈ 2.74 µM) | 0.06 (≈ 0.164 µM) | – | – | – | 0.25 (≈ 0.684 µM) | 1 (≈ 2.74 µM) | – | – | 0.25 (≈ 0.684 µM) | – | 0.03 (≈ 0.0821 µM) | – | – | 0.03 (≈ 0.0821 µM) | 0.03 (≈ 0.0821 µM) | – | –
11 | Nc1c(F)c(-n2ccnc2)c(F)c2c1c(=O)c(C(=O)O)cn2C1CC1 [Beispiel 30, 5-Amino-1-cyclopropyl-6,8-difluor-1,4-dihydro-7-(1-imidazolyl)-4-oxo-3-chinolincarbonsäure-methansulfonat] | – | 16 (≈ 46.2 µM) | 8 (≈ 23.1 µM) | 2 (≈ 5.78 µM) | 0.03 (≈ 0.0866 µM) | 0.06 (≈ 0.173 µM) | – | 2 (≈ 5.78 µM) | 4 (≈ 11.6 µM) | 0.06 (≈ 0.173 µM) | – | 2 (≈ 5.78 µM) | 0.03 (≈ 0.0866 µM) | 0.25 (≈ 0.722 µM) | 0.06 (≈ 0.173 µM) | – | 0.25 (≈ 0.722 µM) | 0.25 (≈ 0.722 µM) | – | 0.03 (≈ 0.0866 µM)
12 | CCNCC1CCN(c2c(F)c(N)c3c(=O)c(C(=O)O)cn(C4CC4)c3c2F)C1 (stereo not shown) [Beispiel 32, 5-Amino-1-cyclopropyl-7-(3-ethylaminomethyl-1-pyrrolidinyl)-6.8-difluor-1,4-dihydro-4-oxo-3-chinolincarbonsäure-hydrochlorid-hydrat] | 0.03 | 1 | 4 | 0.5 | 0.03 | 0.06 | 0.03 | 1 | 1 | – | – | 0.06 | 0.03 | 0.03 | 0.03 | 0.03 | 0.03 | 0.03 | – | –
